# Literature values as cited in patent publication US6297235A, “Triazolopyridazine derivatives for treating anxiety and enhancing cognition” (Merck Sharp & Dohme Ltd., priority 1997, dated 2001).
# Columns and labels:
# [1] = reported by McNamara and Skelton, Psychobiology, 21:101-108
# [2] = in vivo
structure (smiles),measurement,setting,value
COC(=O)c1cc2c(cn1)[nH]c1ccccc12 [β-CCM],spatial learning in the Morris watermaze,[1],enhanced spatial learning
same,proconvulsant or convulsant effect,[2],proconvulsant or convulsant
